The text below walks through data of patent publication US7601716B2, “Pyridopyrazines and derivatives thereof as ALK and c-Met inhibitors” (Cephalon, Inc., priority 2006, dated 2009).

Assay [1] deals with T1, c-Met (cytoplasmic domain) (Homo sapiens, UniProt P08581).
T1 construct: Reactions were initiated with 30 ng/mL c-Met (cytoplasmic domain, Invitrogen Corporation #PV3143); purchased Invitrogen Corporation PV3143
Nature of the assay: c-Met Kinase Assay (ELISA/TRF, PLC-γ substrate). It counts as biochemical. The settings on record: 3 μM ATP (Km level); read-out: c-Met Kinase Inhibition (IC50). As for the experimental part: Example compounds were tested for their ability to inhibit the kinase activity of baculovirus-expressed ALK using a modification of the ELISA protocol reported for trkA in Angeles, T. S. et al., Anal. Biochem. 1996, 236, 49-55, which is incorporated herein by reference in its entirety. Phosphorylation of the substrate, phospholipase C-gamma (PLC-γ) generated as a fusion protein with glutathione S-transferase (GST) as reported in Rotin, D. et al., EMBO J. 1992, 11, 559-567, which is incorporated herein by reference in its entirety, was detected with a europium-labeled anti-phosphotyrosine antibody and measured by time-resolved fluorescence (TRF). Briefly, each 96-well plate was coated with 100 μL/well of 10 μg/mL substrate (phospholipase C-γ) in Tris-buffered saline (TBS). […] The reaction was initiated by adding enzyme (30 ng/ml ALK) and was allowed to proceed at 37° C. for 15 minutes. Detection of the phosphorylated product was performed by adding 100 μl/well of Eu-N1 labeled PT66 antibody (Perkin Elmer # AD0041). Incubation at 37° C. then proceeded for one (1) hour, followed by addition of 100 μL enhancement solution (Wallac #1244-105). The plate was gently agitated and after thirty minutes, the fluorescence of the resulting solution was measured using the EnVision 2100 (or 2102) multilabel plate reader (Perkin Elmer).
Data analysis was performed using ActivityBase (IDBS, Guilford, UK). IC50 values were calculated by plotting percent inhibition versus log10 of the concentration of compound and fitting to the nonlinear regression sigmoidal dose-response (variable slope) equation in XLFit (IDBS, Guilford, UK).
Reactions were initiated with 30 ng/mL c-Met (cytoplasmic domain, Invitrogen Corporation #PV3143).
A general note: An ELISA detects its analyte on a solid surface through an enzyme-linked reagent.

In assay [2] the target is baculovirus-expressed ALK (Homo sapiens, UniProt Q9UM73). The assay is described as follows: ALK Kinase Assay (ELISA/TRF, PLC-γ substrate). Also: 1 µM ATP (Km level). The settings on record: read-out: ALK Kinase Inhibition (IC50). It counts as biochemical. The essentials: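 Read-out: TRF of europium-labeled anti-phosphotyrosine antibody bound to phosphorylated GST–PLC-γ coated at 10 μg/mL. Kinase step used 30 ng/ml ALK, 37° C, 15 minutes. IC50 values fitted by nonlinear sigmoidal dose-response (variable slope).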

SMILES strings stand for the structures. Structures can show the parent of a compound that is named as a salt.

Chain of baculovirus-expressed ALK (Q9UM73 19-1620): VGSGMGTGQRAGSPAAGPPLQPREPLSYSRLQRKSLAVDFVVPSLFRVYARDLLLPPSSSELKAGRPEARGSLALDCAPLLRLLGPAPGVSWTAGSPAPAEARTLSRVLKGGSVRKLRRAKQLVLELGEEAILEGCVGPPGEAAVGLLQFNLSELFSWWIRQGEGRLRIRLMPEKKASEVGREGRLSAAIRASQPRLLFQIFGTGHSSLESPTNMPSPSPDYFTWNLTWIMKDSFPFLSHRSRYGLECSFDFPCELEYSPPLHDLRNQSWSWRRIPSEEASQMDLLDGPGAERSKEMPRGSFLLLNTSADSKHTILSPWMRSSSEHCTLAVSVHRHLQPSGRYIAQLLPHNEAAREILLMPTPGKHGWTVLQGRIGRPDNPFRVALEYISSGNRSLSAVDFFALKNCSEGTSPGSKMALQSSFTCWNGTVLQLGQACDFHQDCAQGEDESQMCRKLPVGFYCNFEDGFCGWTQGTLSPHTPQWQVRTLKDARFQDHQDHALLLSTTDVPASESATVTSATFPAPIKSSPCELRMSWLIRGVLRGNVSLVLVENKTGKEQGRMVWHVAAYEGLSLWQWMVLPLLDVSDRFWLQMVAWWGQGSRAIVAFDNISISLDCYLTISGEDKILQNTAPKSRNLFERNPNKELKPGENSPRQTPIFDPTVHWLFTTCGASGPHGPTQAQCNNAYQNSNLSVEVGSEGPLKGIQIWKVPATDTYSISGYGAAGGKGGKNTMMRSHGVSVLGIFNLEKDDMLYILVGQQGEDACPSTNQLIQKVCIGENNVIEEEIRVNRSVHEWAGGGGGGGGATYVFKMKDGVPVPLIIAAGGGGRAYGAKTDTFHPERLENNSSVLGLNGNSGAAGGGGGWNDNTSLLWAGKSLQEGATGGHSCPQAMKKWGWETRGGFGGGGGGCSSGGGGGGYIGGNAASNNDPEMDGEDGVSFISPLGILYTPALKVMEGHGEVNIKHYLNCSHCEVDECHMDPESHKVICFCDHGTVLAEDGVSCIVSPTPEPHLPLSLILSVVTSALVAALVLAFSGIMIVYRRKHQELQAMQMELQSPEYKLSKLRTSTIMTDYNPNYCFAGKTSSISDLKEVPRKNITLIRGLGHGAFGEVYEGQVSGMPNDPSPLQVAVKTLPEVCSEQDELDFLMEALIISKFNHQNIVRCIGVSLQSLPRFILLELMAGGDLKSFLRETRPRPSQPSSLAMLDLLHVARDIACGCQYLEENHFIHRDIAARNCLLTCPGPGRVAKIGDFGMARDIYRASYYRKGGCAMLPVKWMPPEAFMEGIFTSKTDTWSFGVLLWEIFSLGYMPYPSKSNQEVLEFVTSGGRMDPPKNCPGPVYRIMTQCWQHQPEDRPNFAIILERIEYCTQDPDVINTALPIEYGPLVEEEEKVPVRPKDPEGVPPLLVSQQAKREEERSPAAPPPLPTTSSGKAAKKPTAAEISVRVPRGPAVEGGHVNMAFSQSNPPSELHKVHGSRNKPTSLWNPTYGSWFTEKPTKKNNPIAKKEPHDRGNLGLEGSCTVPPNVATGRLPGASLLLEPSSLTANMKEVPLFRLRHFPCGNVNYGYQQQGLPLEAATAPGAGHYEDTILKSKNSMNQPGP
T1 sequence (P08581 956-1390 limits assumed): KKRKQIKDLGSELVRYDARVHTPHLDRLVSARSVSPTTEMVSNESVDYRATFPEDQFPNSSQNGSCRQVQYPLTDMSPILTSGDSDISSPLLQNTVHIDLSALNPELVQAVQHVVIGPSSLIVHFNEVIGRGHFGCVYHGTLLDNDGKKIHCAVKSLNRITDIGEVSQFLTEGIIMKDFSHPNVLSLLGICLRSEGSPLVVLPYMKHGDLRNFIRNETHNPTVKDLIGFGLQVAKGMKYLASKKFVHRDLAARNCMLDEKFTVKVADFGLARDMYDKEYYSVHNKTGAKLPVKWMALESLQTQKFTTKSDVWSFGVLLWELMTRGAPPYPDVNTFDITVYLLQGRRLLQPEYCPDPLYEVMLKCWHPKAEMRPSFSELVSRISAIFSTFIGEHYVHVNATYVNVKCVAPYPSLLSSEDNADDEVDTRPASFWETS

Consider `O=C1CNc2ncc(-c3ccc(C(=O)N4CCC[C@H]4CN4CCCC4)cc3)cc2N1Cc1ccccc1` [Example 13, S-1-Benzyl-7-[4-(2-[(pyrrolidin-1-yl)methyl]pyrrolidine-1-carbonyl)phenyl]-3,4-dihydro-1H-pyrido[2,3-b]pyrazin-2-one, trifluoroacetic acid salt], for which the half-maximal inhibitory concentration (IC50) (as a rule, the concentration at which inhibition is half-maximal) was more than 100 µM in assay [1] and 10 to 100 µM in assay [2].

On to `CC(c1cc(F)ccc1F)N1C(=O)CNc2ncc(-c3ccc(C(=O)N4CCN(C)CC4)cc3)cc21` (stereo not drawn) [Example 152, 1-[1-(2,5-Difluorophenyl)ethyl]-7-[4-(4-methylpiperazine-1-carbonyl)phenyl]-3,4-dihydro-1H-pyrido[2,3-b]pyrazin-2-one, trifluoroacetic acid salt], for which the 50% inhibitory concentration (IC50) in assay [1] was 10 to 100 µM; in assay [2], 1 to 10 µM.

As to `O=C(c1ccc(-c2cnc3c(c2)N(C(=O)Cc2ccccc2)CCN3)cc1)N1CCC(N2CCCC2)CC1` [Example 111, 2-Phenyl-1-{7-[4-(4-(pyrrolidin-1-yl)piperidine-1-carbonyl)phenyl]-3,4-dihydro-2H-pyrido[2,3-b]pyrazin-1-yl}-ethanone], the half-inhibitory concentration (IC50) in assay [1] was 10 to 100 µM; in assay [2] it was more than 100 µM.

Turning to `O=C(NCc1ccncc1)c1cnc2c(c1)N(Cc1cc(Cl)ccc1Cl)CCN2` [Example 234, 1-(2,5-Dichlorobenzyl)-1,2,3,4-tetrahydropyrido[2,3-b]pyrazine-7-carboxylic acid (pyridin-4-ylmethyl)amide], the 50% inhibitory concentration (IC50) was more than 100 µM in assay [1] and 1 to 10 µM in assay [2].

Turning to `O=C(O)c1ccc(-c2cnc3c(c2)N(Cc2cc(Cl)ccc2C(F)(F)F)CCN3)cc1` [Example 195, 4-{1-[5-Chloro-2-(trifluoromethyl)benzyl]-1,2,3,4-tetrahydropyrido[2,3-b]pyrazin-7-yl}benzoic acid], the 50% inhibitory concentration (IC50) in assay [1] and in assay [2] was 1 to 10 µM in each case.

`Clc1cccc(OC2CCNc3ncc(-c4cccc(N5CCOCC5)c4)cc32)c1` (stereo not drawn) [Example 279, 4-(3-Chlorophenoxy)-6-(3-morpholin-4-yl-phenyl)-1,2,3,4-tetrahydro-[1,8]naphthyridine]: the 50% inhibitory concentration (IC50) in assay [1] fell in the range of 10 to 100 µM; in assay [2], 1 to 10 µM.

For the compound `O=C(c1cnc2c(c1)N(Cc1cc(Cl)ccc1Cl)CCN2)N1CCN(CCc2ccccn2)CC1` [Example 229, [1-(2,5-Dichlorobenzyl)-1,2,3,4-tetrahydropyrido[2,3-b]pyrazin-7-yl]-[4-(2-pyridin-2-yl-ethyl)piperazin-1-yl]methanone], the IC50 in assay [1] and in assay [2] was 1 to 10 µM each time.

With `O=C(c1ccc(-c2cnc3c(c2)N(Cc2ccccc2OC(F)(F)F)CCN3)cc1)N1CCC(N2CCCC2)CC1` [Example 305, (4-Pyrrolidin-1-yl-piperidin-1-yl)-(4-{1-[2-(trifluoromethoxy)benzyl]-1,2,3,4-tetrahydropyrido[2,3-b]pyrazin-7-yl}phenyl)methanone], the results for the IC50 in assay [1] and in assay [2] were 1 to 10 µM and less than 0.1 µM, respectively.

On to `Clc1cccc(Cl)c1CN1CCNc2ncc(-c3cccnc3)cc21` [Example 138, 1-(2,6-Dichlorobenzyl)-7-pyridin-3-yl-1,2,3,4-tetrahydropyrido[2,3-b]pyrazine, trifluoroacetic acid salt], for which the values for the IC50 in assay [1] and in assay [2] were 10 to 100 µM and 1 to 10 µM, respectively.

Consider `NS(=O)(=O)c1ccc(CNC(=O)c2cnc3c(c2)N(Cc2cc(Cl)ccc2Cl)CCN3)cc1` [Example 263, 1-(2,5-Dichlorobenzyl)-1,2,3,4-tetrahydropyrido[2,3-b]pyrazine-7-carboxylic acid 4-sulfamoyl-benzylamide], for which the figures for the IC50 in assay [1] and in assay [2] were more than 100 µM and 1 to 10 µM, respectively.

As for `CN1CCN(c2cc(-c3cnc4c(c3)C(Oc3cccc(Cl)c3)CCN4)ccn2)CC1` (stereo not drawn) [Example 278, 4-(3-Chlorophenoxy)-6-[2-(4-methylpiperazin-1-yl)pyridin-4-yl]-1,2,3,4-tetrahydro-[1,8]naphthyridine], the half-inhibitory concentration (IC50) in assay [1] and in assay [2] was 1 to 10 µM throughout.

In the case of `O=C(c1cnc2c(c1)N(Cc1cc(Cl)ccc1Cl)CCN2)N1CCC2(CC1)C(=O)NCN2c1ccccc1` [Example 216, 8-[1-(2,5-Dichlorobenzyl)-1,2,3,4-tetrahydropyrido[2,3-b]pyrazine-7-carbonyl]-1-phenyl-1,3,8-triaza-spiro[4.5]decan-4-one], the results for the IC50 in assay [1] and in assay [2] were more than 100 µM and 1 to 10 µM, respectively.

Consider `COC(=O)C(C)(C)Nc1ncc(I)cc1[N+](=O)[O-]` [Example 90, 2-(5-Iodo-3-nitro-pyridin-2-ylamino)-2-methyl-propionic acid methyl ester], for which the concentration for half-maximal inhibition (IC50) in assay [1] and in assay [2] was more than 100 µM throughout.

`Fc1ccc(F)c(CN2CCNc3ncc(-c4ccnc(N5CCCC5)c4)cc32)c1Cl` [Example 183, 1-(2-Chloro-3,6-difluorobenzyl)-7-(2-pyrrolidin-1-yl-pyridin-4-yl)-1,2,3,4-tetrahydropyrido[2,3-b]pyrazine]: the IC50 is 1 to 10 µM in assay [1] and 0.1 to 1 µM in assay [2].

For `CC(c1c(F)ccc(F)c1Cl)N1C(=O)CNc2ncc(I)cc21` (stereo not drawn) [Example 175, 1-[1-(2-Chloro-3,6-difluorophenyl)ethyl]-7-iodo-3,4-dihydro-1H-pyrido[2,3-b]pyrazin-2-one], the 50% inhibitory concentration (IC50) in assay [1] and in assay [2] was more than 100 µM in each case.

In the case of `O=C(c1cnc2c(c1)N(Cc1cc(Cl)ccc1Cl)CCN2)N1CCC(c2ccccc2)CC1` [Example 212, [1-(2,5-Dichlorobenzyl)-1,2,3,4-tetrahydropyrido[2,3-b]pyrazin-7-yl]-(4-phenylpiperidin-1-yl)methanone], the concentration for half-maximal inhibition (IC50) in assay [1] and in assay [2] was 1 to 10 µM each time.

Regarding `O=C(NCc1csc(-c2ccccc2)n1)c1cnc2c(c1)N(Cc1cc(Cl)ccc1Cl)CCN2` [Example 242, 1-(2,5-Dichlorobenzyl)-1,2,3,4-tetrahydropyrido[2,3-b]pyrazine-7-carboxylic acid (2-phenylthiazol-4-yl-methyl)amide], the IC50 in assay [1] was more than 100 µM; in assay [2], 1 to 10 µM.

With `O=C(NC1CCc2ccccc21)c1cnc2c(c1)N(Cc1cc(Cl)ccc1Cl)CCN2` (stereo not drawn) [Example 245, 1-(2,5-Dichlorobenzyl)-1,2,3,4-tetrahydropyrido[2,3-b]pyrazine-7-carboxylic acid indan-1-ylamide], the results for the IC50 in assay [1] and in assay [2] were 10 to 100 µM and 0.1 to 1 µM, respectively.

With `O=C(NC1Cc2ccccc2C1)c1cnc2c(c1)N(Cc1cc(Cl)ccc1Cl)CCN2` [Example 259, 1-(2,5-Dichlorobenzyl)-1,2,3,4-tetrahydropyrido[2,3-b]pyrazine-7-carboxylic acid indan-2-ylamide], the figures for the IC50 in assay [1] and in assay [2] were more than 100 µM and 1 to 10 µM, respectively.

As for `O=C(NCc1cc(C(F)(F)F)cc(C(F)(F)F)c1)c1cnc2c(c1)N(Cc1cc(Cl)ccc1Cl)CCN2` [Example 239, 1-(2,5-Dichlorobenzyl)-1,2,3,4-tetrahydropyrido[2,3-b]pyrazine-7-carboxylic acid 3,5-bis-(trifluoromethyl)benzylamide], the figures for the 50% inhibitory concentration (IC50) in assay [1] and in assay [2] were more than 100 µM and 1 to 10 µM, respectively.

Turning to `COc1ccc(CN2CCN(C(=O)c3cnc4c(c3)N(Cc3cc(Cl)ccc3Cl)CCN4)CC2)cc1` [Example 218, [1-(2,5-Dichlorobenzyl)-1,2,3,4-tetrahydropyrido[2,3-b]pyrazin-7-yl]-[4-(4-methoxybenzyl)piperazin-1-yl]methanone], the IC50 in assay [1] and in assay [2] was 10 to 100 µM each time.

As for `O=C(NCCCN1CCOCC1)c1ccc(-c2cnc3c(c2)N(Cc2ccccc2)C(=O)CN3)cc1` [Example 14, 4-(1-Benzyl-2-oxo-1,2,3,4-tetrahydropyrido[2,3-b]pyrazin-7-yl)-N-(3-morpholin-4-yl-propyl)benzamide, trifluoroacetic acid salt], the IC50 was more than 100 µM in assay [1] and 10 to 100 µM in assay [2].

With `COc1ccc(N2CCN(C(=O)c3cnc4c(c3)N(Cc3cc(Cl)ccc3Cl)CCN4)CC2)cc1` [Example 247, [1-(2,5-Dichlorobenzyl)-1,2,3,4-tetrahydropyrido[2,3-b]pyrazin-7-yl]-[4-(4-methoxyphenyl)piperazin-1-yl]methanone], the IC50 is more than 100 µM in assay [1] and 1 to 10 µM in assay [2].

With `O=C(c1cnc2c(c1)N(Cc1cc(Cl)ccc1Cl)CCN2)N1CCN(C(=O)C2CCCO2)CC1` (stereo not drawn) [Example 252, [1-(2,5-Dichlorobenzyl)-1,2,3,4-tetrahydropyrido[2,3-b]pyrazin-7-yl]-[4-(tetrahydrofuran-2-carbonyl)piperazin-1-yl]methanone], the half-maximal inhibitory concentration (IC50) in assay [1] was more than 100 µM; in assay [2], 10 to 100 µM.
